According to patent US12459891B2, “1-[1-(4-benzyloxy-3,5-difluoro-benzoyl)-4-fluoro-pyrrolidine-2-carbonyl]-pyrrolidine-2-carbonitrile” (ACCURE THERAPEUTICS, S.L., priority 2020, dated 2025):

How the values were obtained:
[1] = target: T1, human prolyl oligopeptidase (Homo sapiens, UniProt P48147); experiment: POP inhibition assay (Z-G-P-AMC substrate, fluorimetric); type: biochemical; conditions: hPOP 20 to 60 nM, 15 min preincubation, 1 hour at 37° C., pH 8.0
T1 construct: His tail; made in house; host or cells: E. coli BL21
T1 sequence (P48147 1-710): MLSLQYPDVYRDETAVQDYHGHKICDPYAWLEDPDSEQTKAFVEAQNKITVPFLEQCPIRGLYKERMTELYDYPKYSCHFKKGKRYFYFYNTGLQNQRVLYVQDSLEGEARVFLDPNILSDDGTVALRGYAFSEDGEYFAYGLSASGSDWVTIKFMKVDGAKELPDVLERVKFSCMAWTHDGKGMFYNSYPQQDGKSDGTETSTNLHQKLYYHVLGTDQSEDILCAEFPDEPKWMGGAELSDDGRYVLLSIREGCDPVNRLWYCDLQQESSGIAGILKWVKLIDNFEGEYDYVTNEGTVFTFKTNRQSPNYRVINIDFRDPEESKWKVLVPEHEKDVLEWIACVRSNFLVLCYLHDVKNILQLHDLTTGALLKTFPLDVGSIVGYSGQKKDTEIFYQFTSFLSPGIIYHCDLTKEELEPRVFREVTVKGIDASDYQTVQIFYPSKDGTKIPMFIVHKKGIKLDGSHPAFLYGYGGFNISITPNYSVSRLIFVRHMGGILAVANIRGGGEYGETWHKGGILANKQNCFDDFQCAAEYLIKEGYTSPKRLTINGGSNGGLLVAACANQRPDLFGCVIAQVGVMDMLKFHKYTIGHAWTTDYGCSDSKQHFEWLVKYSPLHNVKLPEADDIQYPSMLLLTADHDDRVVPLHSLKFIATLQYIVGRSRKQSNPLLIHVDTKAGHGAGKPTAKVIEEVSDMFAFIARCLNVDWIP
Procedure: POP was obtained by expression in E. coli and affinity purification using a His tail fusion according to a literature procedure (Tarragó T et al., Chem Bio Chem 2006; 7:827-33) summarized below:
hPOP expression: E. coli BL21 competent cells were transformed with pETM10 hPOP. To induce expression, a pre-culture of LB medium (50 mL) containing kanamycin (50 μg/mL) was inoculated with one colony and was grown overnight at 37° C. Next day, two cultures of LB medium (500 mL) were inoculated with the overnight culture (10 mL). The inoculated cultures were grown at 37° C. and 220 rpm until the OD595 was 1.2 (2.5-3 hours). […] The column was washed with suspension buffer until the absorbance at 280 nm returned to basal level. […] POP activity was checked in all fractions and positive ones were analyzed by SDS-PAGE and stained with Biosafe Comassie Stain G-250. […] Recombinant hPOP was quantified with the Bio-Rad Protein Assay with BSA as standard. […]
POP activity was determined following the method described by Toide et al (Toide K et al., J. Pharmacol. Exp. Ther. 1995; 274:1370-8), using Z-G-P-AMC (N-benzyloxycarbonyl-Gly-Pro-methylcoumarinyl-7-amide) as POP substrate. […]
Several concentration points (ranging from 25 μM to 400 μM) were measured for each compound. The inhibitory activity on prolyl oligopeptidase was calculated according to eq 1. […]

MK-801-treated mice = experiment: Novel object recognition (NOR) task, MK-801-induced cognitive deficit; type: in vivo, male C57/Bl6 mice; conditions: for % discrimination index: mean ± s.e.m.
[2] = compound 5 mg/kg intraperitoneal 35 min before test + MK 801 0.2 mg/kg sc
[3] = compound 5 mg/kg oral (po) 35 min before test + MK 801 0.2 mg/kg sc

SMILES	IC50 [1] [nM]	% discrimination index (MK-801-treated mice; [2]) [%]	% discrimination index (MK-801-treated mice; [3]) [%]	Efficacy after oral administration (in words) (MK-801-treated mice; oral administration)
N#C[C@@H]1CCCN1C(=O)[C@@H]1C[C@@H](F)CN1C(=O)c1cc(F)c(OCc2ccccc2)c(F)c1 [Example 1, (S)-1-((2S,4R)-1-(4-(benzyloxy)-3,5-difluorobenzoyl)-4-fluoropyrrolidine-2-carbonyl)pyrrolidine-2-carbonitrile]	45	30.3 ± 3.9	42.1 ± 5.1	
N#C[C@@H]1CCCN1C(=O)[C@@H]1CC(F)(F)CN1C(=O)c1ccc(OCc2ccccc2)c(F)c1 [Comp Ex. 4, (S)-1-((S)-1-(4-(benzyloxy)-3-fluorobenzoyl)-4,4-difluoropyrrolidine-2-carbonyl) pyrrolidine-2-carbonitrile]	365			
COc1cc(C(=O)N2CC(F)(F)C[C@H]2C(=O)N2CCC[C@H]2C#N)cc(OC)c1OCc1ccccc1 [Comp Ex. 3, (S)-1-((2S)-1-(4-(benzyloxy)-3,5-dimethoxybenzoyl)-4,4-difluoropyrrolidine-2-carbonyl)pyrrolidine-2-carbonitrile]		42.7 ± 3.3	20.1 ± 2.9	no efficacy
